Test results as given in PMC2861360 (Chemistry & biology, 2008).

Assays:
wt PikAIV M6 = wt PikAIV M6 (Streptomyces venezuelae, UniProt Q9ZGI2); experiment: SDS-PAGE autoradiography of self-loading; assay type: biochemical; conditions: 0.4 mM; HEPES pH 7.4, RT, 5 min; covalent; labelled compound
wt EryAIII M6 = biological target: T1, wt EryAIII M6 (Saccharopolyspora erythraea, UniProt Q03133); experiment: SDS-PAGE autoradiography of self-loading; assay type: biochemical; conditions: HEPES pH 7.4, RT; covalent; labelled compound; data not shown
T1 sequence (Q03133 1468-2900 limits assumed): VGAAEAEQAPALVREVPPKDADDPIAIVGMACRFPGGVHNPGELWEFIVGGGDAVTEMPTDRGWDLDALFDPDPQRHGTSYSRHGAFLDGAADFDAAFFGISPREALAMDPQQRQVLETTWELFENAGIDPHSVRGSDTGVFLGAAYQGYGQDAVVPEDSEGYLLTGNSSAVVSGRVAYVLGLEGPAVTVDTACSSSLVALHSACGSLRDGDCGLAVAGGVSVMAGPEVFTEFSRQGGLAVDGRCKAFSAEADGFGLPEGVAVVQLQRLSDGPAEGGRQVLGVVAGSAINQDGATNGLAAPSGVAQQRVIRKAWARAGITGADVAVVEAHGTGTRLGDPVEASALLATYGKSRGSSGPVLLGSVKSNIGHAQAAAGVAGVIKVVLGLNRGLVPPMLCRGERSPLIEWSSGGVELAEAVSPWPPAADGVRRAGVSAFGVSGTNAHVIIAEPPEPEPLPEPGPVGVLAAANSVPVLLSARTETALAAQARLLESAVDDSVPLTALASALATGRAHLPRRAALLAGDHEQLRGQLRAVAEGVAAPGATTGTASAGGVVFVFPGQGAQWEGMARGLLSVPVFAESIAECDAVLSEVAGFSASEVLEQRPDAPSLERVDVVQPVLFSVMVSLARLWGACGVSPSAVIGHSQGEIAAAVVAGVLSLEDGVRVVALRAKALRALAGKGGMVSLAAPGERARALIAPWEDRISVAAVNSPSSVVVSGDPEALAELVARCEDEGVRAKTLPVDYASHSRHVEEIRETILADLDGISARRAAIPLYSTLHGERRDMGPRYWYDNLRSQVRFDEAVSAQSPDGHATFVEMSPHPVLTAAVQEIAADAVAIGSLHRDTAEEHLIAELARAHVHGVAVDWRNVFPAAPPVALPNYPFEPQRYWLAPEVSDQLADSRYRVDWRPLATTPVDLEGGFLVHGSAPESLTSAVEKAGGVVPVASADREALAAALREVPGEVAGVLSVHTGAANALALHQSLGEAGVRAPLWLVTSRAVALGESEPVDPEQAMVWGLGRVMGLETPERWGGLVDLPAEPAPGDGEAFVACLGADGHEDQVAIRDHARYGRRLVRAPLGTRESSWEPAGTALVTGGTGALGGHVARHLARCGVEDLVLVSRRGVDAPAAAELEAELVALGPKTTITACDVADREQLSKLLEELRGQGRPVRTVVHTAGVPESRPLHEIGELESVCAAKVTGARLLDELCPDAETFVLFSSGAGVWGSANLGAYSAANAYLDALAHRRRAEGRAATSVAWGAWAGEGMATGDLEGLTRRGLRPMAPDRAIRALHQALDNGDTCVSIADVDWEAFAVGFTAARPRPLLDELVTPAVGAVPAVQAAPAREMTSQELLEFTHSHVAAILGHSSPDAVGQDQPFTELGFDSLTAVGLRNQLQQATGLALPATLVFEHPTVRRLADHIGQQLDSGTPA

Chain of wt PikAIV M6 (Q9ZGI2 whole entry): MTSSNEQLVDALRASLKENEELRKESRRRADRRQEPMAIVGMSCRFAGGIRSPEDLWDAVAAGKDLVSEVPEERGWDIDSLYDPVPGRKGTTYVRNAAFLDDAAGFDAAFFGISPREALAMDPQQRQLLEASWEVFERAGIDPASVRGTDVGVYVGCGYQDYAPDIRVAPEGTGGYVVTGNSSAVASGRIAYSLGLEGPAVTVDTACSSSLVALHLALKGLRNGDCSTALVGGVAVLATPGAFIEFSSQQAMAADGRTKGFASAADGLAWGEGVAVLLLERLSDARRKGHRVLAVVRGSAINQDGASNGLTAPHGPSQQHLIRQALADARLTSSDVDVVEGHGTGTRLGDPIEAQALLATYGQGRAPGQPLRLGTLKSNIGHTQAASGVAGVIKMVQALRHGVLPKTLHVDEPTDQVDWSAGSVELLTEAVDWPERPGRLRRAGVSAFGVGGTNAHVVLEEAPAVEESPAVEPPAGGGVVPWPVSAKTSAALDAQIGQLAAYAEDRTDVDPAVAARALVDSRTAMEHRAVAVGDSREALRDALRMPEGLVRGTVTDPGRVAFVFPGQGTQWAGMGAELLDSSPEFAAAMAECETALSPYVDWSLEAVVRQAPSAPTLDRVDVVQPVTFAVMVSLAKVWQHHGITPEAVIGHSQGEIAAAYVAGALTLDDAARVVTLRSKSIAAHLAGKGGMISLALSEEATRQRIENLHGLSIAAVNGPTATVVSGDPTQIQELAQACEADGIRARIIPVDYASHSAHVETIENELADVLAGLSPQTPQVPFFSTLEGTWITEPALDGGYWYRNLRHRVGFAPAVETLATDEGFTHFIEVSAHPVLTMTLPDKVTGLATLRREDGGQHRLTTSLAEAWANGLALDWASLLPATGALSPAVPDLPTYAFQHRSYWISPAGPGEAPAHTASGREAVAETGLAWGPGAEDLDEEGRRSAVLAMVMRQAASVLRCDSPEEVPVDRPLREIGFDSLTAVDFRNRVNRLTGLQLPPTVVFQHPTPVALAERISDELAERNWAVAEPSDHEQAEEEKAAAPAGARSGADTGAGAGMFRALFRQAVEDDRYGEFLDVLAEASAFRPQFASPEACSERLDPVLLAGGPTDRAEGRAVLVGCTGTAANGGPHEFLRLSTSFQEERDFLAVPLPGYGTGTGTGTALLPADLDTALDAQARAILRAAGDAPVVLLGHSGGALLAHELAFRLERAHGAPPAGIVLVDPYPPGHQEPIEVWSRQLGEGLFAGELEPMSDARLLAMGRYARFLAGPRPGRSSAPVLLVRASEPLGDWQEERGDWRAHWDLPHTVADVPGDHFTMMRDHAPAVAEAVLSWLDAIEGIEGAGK

SMILES: CC(C(=O)O)C(=O)SCCNC(=O)CCNC(=O)[C@H](O)C(C)(C)COP(=O)(O)OP(=O)(O)OC[C@H]1O[C@@H](n2cnc3c(N)ncnc32)[C@H](O)[C@@H]1OP(=O)(O)O (some centres unmarked) [methylmalonyl-CoA]
- SDS-PAGE autoradiography of self-loading (wt PikAIV M6): The wt PikAIV M6 was able to self-load and transfer methylmalonyl-CoA, but not malonyl-CoA
- SDS-PAGE autoradiography of self-loading (wt EryAIII M6): wt EryAIII M6 was able to self-load methylmalonyl-CoA
